Where two headings read alike, the source gives them in different places.
Assays:
murine TRPM7 = murine TRPM7 (Mus musculus, UniProt Q923J1); conditions: for dose dependence of inhibition of TRPM7-mediated fura-2 quench by Mn2+: serial dilutions, 15 min pre-incubation
Method: Wild type (non-transfected) human embryonic kidney (WT-HEK293) cells and tetracycline-inducible HEK293 cells, stably transfected with a FLAG-murine TRPM7/pcDNA4/TO construct (TRPM7-HEK293), were cultured in a humidified incubator, at 37° C. and 5% CO2, in DMEM supplemented with 10% FBS and 2 mM L-glutamine. Wild type HEK293 culture medium was supplemented with 100 U/mL penicillin and 0.10 mg/mL streptomycin. TRPM7-HEK293 culture medium was supplemented with 5 μg/mL blasticidin and 0.4 mg/mL zeocin.
TRPM7 channel conductance was monitored using a FlexStation 3 scanning fluorometer (Molecular Devices, Sunnyvale, Calif.) to monitor the Ca^2+-independent (360 nm excitation/510 nm emission) fura-2 quench by Mn^2+ in TRPM7 overexpressing HEK293 cells. The FlexStation 3 measured the fluorescent signal intensity in relative fluorescence units (RFU), at 1.5 s intervals for 60 s using a beam diameter of 1.5-2.0 mm. Following baseline measurements, Mn^2+ was added extracellularly and changes in cytosolic [Mn^2+] were monitored as the loss of relative fluorescence caused by fura-2 quenching. TRPM7-HEK293 cells (30,000, 60,000 or 120,000 cells/well) were plated in poly-L-lysine coated, black clear-bottom 96-well plates (Greiner Bio-One, Monroe, N.C.). Subsequent TRPM7-expression was induced 2-3 h post plating by the addition of 1 μg/mL tetracycline. The culture medium was completely removed at 16-18 h post induction and replaced with the following fura-2 loading-buffer: KRH buffer supplemented with 2 μM fura-2-AM, with or without 2 mM probenecid, and with or without 0.1-0.3% pluronic F-127. Following variable incubation times (30, 45 and 60 min at 25 or 37° C.) the loading buffer was removed and replaced with assay buffer (KRH). The plates were then transferred to a room temperature (25° C.) or pre-warmed (37° C.) FlexStation which also contained a clear V-bottom 96-well compound plate (Greiner Bio-One) with vehicle or appropriate test substance solutions diluted with KRH. Cells were initially incubated for 15 min with the appropriate test substance solutions. Just prior to the addition of 1 or 10 mM MnCl2 the baseline fluorescence was recorded for 20 s. The Ca^2+-independent, TRPM7-mediated fura-2 quench by Mn^2+ was then recorded for 40 s.
Fluorescence data was collected in SoftMax Pro (Molecular Devices) and processed in Microsoft Excel 2007. Replicate fluorescence traces (time vs. intensity) were averaged and the Z′-factors were calculated. Mean, standard deviation (sdev), and Z′-factors at each time point were plotted using IGOR PRO (Wavemetrics). […] These values were background-corrected (WT-HEK293 signal subtracted) and normalized to vehicle controls.
TRPM7-HEK293 cells and HEK293 cells were plated at 60,000 cells/well. Cells were incubated at 37° C. for 60 min with KRH containing 2 mM probenecid, 0.1% pluronic F-127, and 2 μM fura-2-AM. After a wash step, the cells were pre-incubated with LaCl3 (serial diluted 2:1 from 7.0 mM to 9.6 μM) or 2-APB (serial diluted 2:1 from 500-0.69 μM) at 37° C. for 15 min during baseline measurements.

TRPM7 [1] = molecular target: T1, TRPM7 (Mus musculus, UniProt Q923J1); set-up: host or cells: TRPM7-HEK293 and CHOK1-TRPM7 cells as reported earlier; conditions: cited from earlier work
TRPM7 [2] = molecular target: T1, TRPM7; experiment: Whole-cell patch-clamp of TRPM7 currents in HEK293-TRPM7; type: cell-based; set-up: FLAG; expressed in transfected cells; host or cells: tetracycline-inducible HEK293 cells (pcDNA4/TO vector); conditions: for IC50: read-out: IC50, inhibition of TRPM7 currents
Method: Error bars represent S.E.M. Corresponding I/V relationships are representative currents in response to voltage ramps obtained at 500 s. […] Currents were extracted at +80 mV at 500 s, normalized to the maximal current amplitude before application (200 s), plotted against waixenicin A concentration, and approximated by dose-response fit function (n=8-10). […] Same analysis as in FIG. 9A. Error bars represent S.E.M.
Patch-clamp experiments were performed in the whole-cell configuration at 24° C. All data were acquired with PatchMaster (HEKA) software controlling an EPC-9 amplifier (HEKA, Lambrecht, Germany) and analyzed using FitMaster (HEKA) and IGOR PRO (Wavemetrics, USA). Voltage ramps of 50 ms spanning from −100 to +100 mV were delivered from a holding potential of 0 mV at a rate of 0.5 Hz. Voltages were corrected for liquid junction potentials (10 mV). Currents were filtered at 2.9 kHz and digitized at 100 μs intervals. Current amplitudes were extracted at +80 mV and −80 mV for analysis and display.
To activate TRPM7 currents, intracellular Mg^2+ and Mg-ATP were washed out by perfusion with Mg^2+- and ATP-free internal solution. Whole-cell currents were elicited by voltage ramps from −100 to +100 mV delivered at 0.5 Hz and current amplitudes were extracted at +80 mV and plotted versus time of the experiment. […] The corresponding current-voltage (I/V) relationships are illustrated by representative ramp currents extracted at 500 s. […] Outward and inward TRPM7 currents responded in a similar manner to waixenicin A treatment (FIG. 10A), resulting in the same IC50.
To better mimic physiologic conditions, we clamped the intracellular solution to 700 μM free internal Mg^2+ and only omitted Mg-ATP to achieve TRPM7 activation. […] The corresponding I/V relationships are illustrated by representative ramp currents.

[3] = read-out: IC50, inhibition of the TRPM7-mediated fura-2 quench by Mn2+, TRPM7-HEK293, 15 min pre-incubation at 37° C., 10 mM MnCl2, endpoint 10 s after MnCl2 addition

T1 sequence (Q923J1 whole entry): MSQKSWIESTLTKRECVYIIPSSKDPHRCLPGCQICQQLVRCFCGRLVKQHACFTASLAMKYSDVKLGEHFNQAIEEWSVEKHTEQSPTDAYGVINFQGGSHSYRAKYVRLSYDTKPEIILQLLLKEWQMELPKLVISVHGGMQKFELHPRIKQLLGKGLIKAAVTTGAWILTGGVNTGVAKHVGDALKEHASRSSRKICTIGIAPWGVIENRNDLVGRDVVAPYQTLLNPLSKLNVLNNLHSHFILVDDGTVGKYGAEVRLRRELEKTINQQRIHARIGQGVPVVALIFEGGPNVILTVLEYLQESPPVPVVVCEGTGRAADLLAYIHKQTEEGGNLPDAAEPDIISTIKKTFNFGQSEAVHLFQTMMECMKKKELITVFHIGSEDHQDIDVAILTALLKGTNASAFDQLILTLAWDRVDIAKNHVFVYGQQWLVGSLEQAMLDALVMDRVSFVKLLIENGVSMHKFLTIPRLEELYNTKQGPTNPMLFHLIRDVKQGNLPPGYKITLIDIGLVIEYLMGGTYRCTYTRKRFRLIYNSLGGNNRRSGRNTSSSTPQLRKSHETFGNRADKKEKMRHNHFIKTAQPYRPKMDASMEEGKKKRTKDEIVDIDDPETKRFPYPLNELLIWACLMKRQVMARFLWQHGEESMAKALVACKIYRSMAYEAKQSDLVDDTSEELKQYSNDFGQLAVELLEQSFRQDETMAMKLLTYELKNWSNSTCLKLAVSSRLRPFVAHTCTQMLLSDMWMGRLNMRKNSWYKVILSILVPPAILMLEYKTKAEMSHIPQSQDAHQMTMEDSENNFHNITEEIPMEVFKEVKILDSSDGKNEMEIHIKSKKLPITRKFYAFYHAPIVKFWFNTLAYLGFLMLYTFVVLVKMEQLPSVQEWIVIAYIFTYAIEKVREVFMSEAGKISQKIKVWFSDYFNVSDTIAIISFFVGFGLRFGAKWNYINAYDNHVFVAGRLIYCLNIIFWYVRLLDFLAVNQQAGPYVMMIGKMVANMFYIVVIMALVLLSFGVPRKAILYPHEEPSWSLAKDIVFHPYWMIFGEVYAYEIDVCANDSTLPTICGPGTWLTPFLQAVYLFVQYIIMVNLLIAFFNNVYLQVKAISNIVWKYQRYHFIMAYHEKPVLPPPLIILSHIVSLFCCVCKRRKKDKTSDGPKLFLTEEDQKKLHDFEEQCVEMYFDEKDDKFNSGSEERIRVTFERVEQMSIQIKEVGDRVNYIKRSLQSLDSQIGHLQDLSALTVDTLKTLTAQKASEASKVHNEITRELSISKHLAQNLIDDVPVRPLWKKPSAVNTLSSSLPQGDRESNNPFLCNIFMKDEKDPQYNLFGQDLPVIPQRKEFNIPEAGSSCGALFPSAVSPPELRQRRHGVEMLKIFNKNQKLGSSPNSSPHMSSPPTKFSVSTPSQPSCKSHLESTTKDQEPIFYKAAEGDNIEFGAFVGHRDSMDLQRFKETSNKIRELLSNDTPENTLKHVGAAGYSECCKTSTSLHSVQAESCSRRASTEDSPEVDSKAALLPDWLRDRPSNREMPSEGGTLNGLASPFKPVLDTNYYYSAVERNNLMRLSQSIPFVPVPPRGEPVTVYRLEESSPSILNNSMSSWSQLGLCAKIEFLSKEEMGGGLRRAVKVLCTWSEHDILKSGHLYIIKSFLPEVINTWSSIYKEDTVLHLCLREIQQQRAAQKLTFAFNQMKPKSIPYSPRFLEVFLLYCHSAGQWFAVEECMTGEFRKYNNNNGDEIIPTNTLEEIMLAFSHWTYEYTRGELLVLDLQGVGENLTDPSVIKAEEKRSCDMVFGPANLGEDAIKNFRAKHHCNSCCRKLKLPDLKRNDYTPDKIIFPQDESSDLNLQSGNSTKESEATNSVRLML
Chain of murine TRPM7 (Q923J1 whole entry): as above

Row | Compound | IC50 (murine TRPM7; [3]) | dose dependence of inhibition of TRPM7-mediated fura-2 quench by Mn2+ (murine TRPM7) | stability of stock solution in cold storage (-20° C., 50 mM in MeOH) | stability of dried film, vacuum packed aliquots (stored at -20° C.) | inhibition of TRPM7 mediated inward current (TRPM7 [1]; 100 μM, divalent-free extracellular solutions, TRPM7-HEK293) | IC50 (TRPM7 [1]; whole-cell recordings, TRPM7-HEK293 and CHOK1-TRPM7 cells, read-out: IC50, TRPM7 mediated outward current) | effect on Mn2+-induced fluorescence quench (murine TRPM7; FIG. 8A, 10 mM MnCl2, HEK293-TRPM7) | block of channel conductance (TRPM7 [1]; 10 μM) | block of inward TRPM7-mediated currents (TRPM7 [1]; 10 mM) | IC50 (murine TRPM7; read-out: IC50 of the maximal slope of the Mn2+ quench, HEK293-TRPM7, 15 min incubation before 10 mM MnCl2) | IC50 (TRPM7 [2]; 0 [Mg2+]i, outward currents at +80 mV at 500 s) | inhibition of TRPM7 currents (TRPM7 [2]; 10 μM for 300 s, +80 mV, Mg2+- and ATP-free internal solution) | TRPM7 current density after application (TRPM7 [2]; 10 μM for 300 s, +80 mV, Mg2+- and ATP-free internal solution, plateau about 130 pA/pF before) | block of TRPM7 current (TRPM7 [2]; 10 μM, 700 μM free internal Mg2+, Mg-ATP omitted) | IC50 (TRPM7 [2]; 700 μM free internal Mg2+) | reversibility of inhibitory effect on washout (TRPM7 [2]; washout for another 300 s)
1 | NCCOB(c1ccccc1)c1ccccc1 [2-APB, 2-aminoethoxydiphenyl borate] | 56 µM | dose dependent inhibition | apparent compound degradation over the course of one week | only remained fully potent when used within a two month period | 77% | 160 ± 14 µM |  |  |  |  |  |  |  |  |  | 
2 | [Cl][La]([Cl])[Cl] [La^3+, LaCl3] | 760 µM | dose dependent inhibition |  |  |  |  | reduced Mn^2+-induced fluorescence quench | ineffective | almost completely blocked |  |  |  |  |  |  | 
3 | C=C1CC/C=C(\C)CC[C@@H]2C([C@H](C/C=C(\C)COC(C)=O)OC(C)=O)=CO[C@H](OC(C)=O)[C@@H]12 [waixenicin A] |  | dose-dependent manner |  |  |  |  |  |  |  | 12 µM | 7 µM | approximately 50% | 67 pA/pF | completely blocked the current | 0.016 µM | failed to reverse its inhibitory effect
